Measurements: patent US12611380B2, “Solution and method for reducing the virulence of viruses, bacteria, yeasts, or fungus” (priority 2020, dated 2026)
≈ marks a conversion by molar mass, not a printed value. Where “and” joins values, the source holds several entries; their conditions need not be identical. Identical values can stand only once. Starred links: 1 amine or outer side, 2 acyl side, 3 side chain; linkers in the order of their positions; H or OH if unused. Positions of bridges follow the written chain, without caps; N, C: chain ends. Non-standard residues stand in square brackets, D forms with d. Residues, ends and D or L forms follow the SMILES beside them. *: point of attachment. hTyr(3S-OH,4S-OH,3'-OSO3H) = N[C@H](C(=O)O)[C@H](O)[C@@H](O)c1ccc(O)c(OS(=O)(=O)O)c1; Orn(4R-OH,5R-OH) = O=C([C@H](C[C@@H](O)[C@@H](O)N[*:3])N[*:1])[*:2]; Pro(3S-OH,4S-Me) = C[C@H]1CN[C@H](C(=O)O)[C@H]1O; X1 = CCCCCOc1ccc(-c2cc(-c3ccc(C(=O)*)cc3)no2)cc1; Gln(3R-OH) = NC(=O)C[C@@H](O)[C@H](N)C(=O)O; Hyp = O=C(O)[C@@H]1C[C@@H](O)CN1

What was measured:
[1] = assay type: physicochemical; details: for Viscosity: 6% of the named additive added to 8% ILCS (potassium) hydro-gel; for reduction in viscosity: 6% additive in ILCS gel, 140° F. 1-3 days then 108° F. 2-4 days
Procedure: A simple viscometer, Digital Viscosity Meter (NDJ-8S, Shaoxing Worner Lab Equipment Co., Ltd., China) was used, recognizing the limitations of measuring a solid gelatin hydro-gel. […] The ILCS was initially incubated at 120° F. overnight, equilibrated at […]. prior to viscometry.
ILCS was made from potassium hydroxide (Spectrum Chemical, Louisville, KY), isomerized linoleic acid (Stepan, New Jersey), and USP WFI water (Ceela Naturals), to a final concentration 8% or 333 mM Potassium Linoleate (isomerized).
Many of the amino acids tested were purchased from Ajinomoto (NJ, USA), while tryptophan, proline, and phenylalanine were obtained from Purebulk (Oregon, USA). The Quorum Sensing Agent phenylethanol was purchased from Sigma Aldrich (GA, USA).
The gel and compound were incubated at 140° F. for 1-3 days followed by incubation 108° F. for 2-4 days.

Candida auris, (AR-0381) = details: isolate AR Isolate Bank #0381; cited from earlier work
microbial growth = test: Reduction in microbial growth; assay type: cell-based; details: potassium hexadiene at pH 9
[2] = test system: Candida albicans (ATCC 10231); test: EPA protocol MB-35-00 hard surface carrier disinfection test
Procedure: (§1) We used EPA protocol MB-35-00 for testing disinfectants against C. auris (US Environmental Protection Agency. 2017, 2020) and C. albicans ATCC 10231, a yeast common in package spoilage of food and cosmetics.
(§2) We tested 5 batches produced with difference sources of isomerized linoleic acid (Test Substances 1-5).
(§3) The EPA test protocol for testing hard surface disinfection of C. auris (AR0381) with antifungal resistance includes an overnight culture of C. auris (AR.0381) shaken at 200 rpm at 30° C. From this culture, 8 mL was harvested by centrifugation, re-suspended in 2-3 mL phosphate-buffered saline (PBS), and mixed with a 3-part soil load including bovine serum albumin (BSA), yeast extract, and mucin. Metal carriers (10 mm) were inoculated (10 μL culture+soil load) and dried in a desiccator under vacuum (˜70 min). The disk surface was coated with the test substance at 0.42 M (50 μL) for up to 10 min. Following incubation, the carriers were transferred to 10 mL neutralization solution (Sabouraud Dextrose Broth [SDB], a common yeast-mold growth media) for subsequent harvesting on membrane filters. The filtered membranes were transferred to Sabouraud Dextrose Emmons Agar (SDEA) plates to culture for 120 hours at 31° C. Controls consisted of PBS (50 μL) applied to inoculated metal disk carriers, subsequently transferred to 10 mL neutralization solution (SDB), diluted serially in PBS, and plated directly to SDEA plates, See FIG. 2.
(§4) We prepared and qualified these per EPA protocol (US Environmental Protection Agency, 2017). • Soil Stocks: We prepared soil stocks with yeast extract powder (Ref RM027) purchased from Himedia, BSA (A2153) purchased from Sigma Life Science, and gastric mucin (cat #HY-B2196/CS-7626) purchased from Mod Chem Express per SOP MB-35-00 (US Environmental Protection Agency, 2017). • Cell Harvesting: We removed cells from the growth culture media using a Micro-Centrifuge obtained from Changzhou Jintan Sanhe Instrument Co., LTD. (Model TGI6-W) at 10,000×g for 10 min in screw-top-cap vials purchased from Heathrow Scientific (Item HS 100600). The optical density of the inoculate was defined at 15-19 OD600 in PBS with the Ultrospec 10 Cell Density Meter from BioChrom (Holliston, MA, USA) prior to dilution in the soil load. Samples were diluted 1:10 in PBS to obtain absorbance readings between 1.5 and 1.9. • Membrane Filtration: Treated yeasts were collected using a combination of the Rocker (Cat #200300-01) and 47 mm PES membranes with a 0.45 micron pore size obtained from Sterlitech (Catalog #PE54547100).

SARS-COV-2 = test: Virucidal assay, 2 minutes contact, end-point titer (CCID50) on Vero 76 cells; details: Ethanol 63%, 2 minutes
[3] = all testing runs (Tables 2 and 3)
[4] = second experiment, Tables 8 and 9
[5] = second experiment, positive control, Table 5

Procedure for Candida auris (AR-0381): as §1, §2, §3, §4

Compound	Viscosity [1] [milliPoise]	MIC (Candida auris, (AR-0381)) [µg/mL]	also measured
Cl.N[C@@H](CS)C(=O)O [Cysteine-HCl]	28400		
CC(C)(CO)C(O)C(=O)NCCCO (stereo not drawn) [D L Panthenol]	28650		
Cl.NCCCC[C@H](N)C(=O)O [Lysine-hcl]	30700		
Anidulaftrngin		0.25	
N[C@@H](Cc1c[nH]cn1)C(=O)O [Histidine base]	28050		
CC(C)(CO)[C@@H](O)C(=O)NCCCO [D Panthenol]	31600		
N[C@@H](CC(=O)O)C(=O)O [Aspartic acid]	25100		
CC[C@H](C)C[C@H](C)CCCCCCCCC(=O)N[C@H]1C[C@@H](O)[C@@H](NCCN)NC(=O)[C@@H]2[C@@H](O)CCN2C(=O)[C@H]([C@H](O)CCN)NC(=O)[C@H]([C@H](O)[C@@H](O)c2ccc(O)cc2)NC(=O)[C@@H]2C[C@@H](O)CN2C(=O)[C@H]([C@@H](C)O)NC1=O [Caspofungin]		0.13 (≈ 0.119 µM)	
C/C=C/C=C/C(=O)[O-].[K+] [Potassium Sorbate, Potassium sorbate]			Test Disks Density (log) (Candida auris (AR-0381); Exposure 2 min., yeast recovered from treated carriers): 5.0 log and 4.9 log; kill rates (Candida auris (AR-0381); [3]): less than one log; reduction in microbial growth (microbial growth): little reduction in microbial growth; Test Disks Density (log) ([2]; Exposure 1 min., yeast recovered from treated carriers): 4.8 log and 4.9 log; kill rates [2, 3]: less than one log
CC(C)[C@H](N)C(=O)O [Valine]	31850		
CC[C@@H]([C@H](C)O)n1ncn(-c2ccc(N3CCN(c4ccc(OC[C@@H]5CO[C@@](Cn6cncn6)(c6ccc(F)cc6F)C5)cc4)CC3)cc2)c1=O [Posaconazolc, posaconazole]		0.06 (≈ 0.0856 µM)	
NCCCC[C@H](N)C(=O)O [Lysine base]	26900		
Nc1[nH]c(=O)ncc1F [Flucytosine]		2.00 (≈ 15.5 µM)	
N=C(N)NCCC[C@H](N)C(=O)O [Arginine]	25600		
N[C@@H](Cc1ccccc1)C(=O)O [Phenylalanine]	130		reduction in viscosity [1]: two log-reduction in viscosity
CCCCCOc1ccc(-c2cc(-c3ccc(C(=O)N[C@H]4C[C@@H](O)[C@@H](O)NC(=O)[C@@H]5[C@@H](O)[C@@H](C)CN5C(=O)[C@H]([C@H](O)CC(N)=O)NC(=O)[C@H]([C@H](O)[C@@H](O)c5ccc(O)c(OS(=O)(=O)O)c5)NC(=O)[C@@H]5C[C@@H](O)CN5C(=O)[C@H]([C@@H](C)O)NC4=O)cc3)no2)cc1 [Micafungin] (X1-[Orn(4R-OH,5R-OH)]T[Hyp][hTyr(3S-OH,4S-OH,3'-OSO3H)][Gln(3R-OH)][Pro(3S-OH,4S-Me)]; lactam 1-C)		0.13 (≈ 0.102 µM)	
NC(=O)c1cccnc1 [Niacinamide]	33800		
C[C@@H](c1ncncc1F)[C@](O)(Cn1cncn1)c1ccc(F)cc1F [Voriconazole]		0.03 (≈ 0.0859 µM)	
C[C@@H]1[C@H](O)[C@@H](C)/C=C/C=C/C=C/C=C/C=C/C=C/C=C/[C@H](O[C@@H]2O[C@H](C)[C@@H](O)[C@H](N)[C@@H]2O)C[C@@H]2O[C@](O)(C[C@@H](O)C[C@@H](O)[C@H](O)CC[C@@H](O)C[C@@H](O)CC(=O)O[C@H]1C)C[C@H](O)[C@H]2C(=O)O [Amphotericin 81]		0.38 (≈ 0.411 µM)	
OC(Cn1cncn1)(Cn1cncn1)c1ccc(F)cc1F [Fluconazolc, fluconazole]		4.00 (≈ 13.1 µM)	
CSCC[C@H](N)C(=O)O [Methionine]	32350		
C[C@H](N)C(=O)O [Alanine]	40700		
CC[C@H](C)[C@H](N)C(=O)O [Iso-Leucine]	29900		
C[C@@H](O)[C@H](N)C(=O)O [Threonine]	30650		
N[C@@H](Cc1c[nH]c2ccccc12)C(=O)O [Tryptophan]	21		reduction in viscosity [1]: two log-reduction in viscosity
CCC(C)n1ncn(-c2ccc(N3CCN(c4ccc(OCC5COC(Cn6cncn6)(c6ccc(Cl)cc6Cl)O5)cc4)CC3)cc2)c1=O (stereo not drawn) [Iuaconazole, itraconazole]		0.13 (≈ 0.184 µM)	
CCO [Ethanol, reference compound]			LRV (log reduction value) (SARS-COV-2; Table 7): >1.8; Virus Titer (SARS-COV-2; Table 7): <1.7 Log10 CCID50of virus per 0.1 mL; LRV (log reduction value) (SARS-COV-2; positive control, Table 4): >1.8; Virus Titer (SARS-COV-2; positive control, Table 4): <1.7 Log10 CCID50 of virus per 0.1 mL; LRV (log reduction value) (SARS-COV-2; [4]): >2.0; Virus Titer (SARS-COV-2; [4]): <1.7 Log10 CCID50of virus per 0.1 mL; LRV (log reduction value) (SARS-COV-2; [5]): >2.0; Virus Titer (SARS-COV-2; [5]): <1.7 Log10 CCID50 of virus per 0.1 mL; toxicity to cells in titer plates (Vero 76 cells): toxic to cells
N[C@@H](CO)C(=O)O [Serine]	22300		
